This is an account of results in ChEMBL document CHEMBL1144584, “Identification of novel short chain 4-substituted indoles as potent alphavbeta3 antagonist using structure-based drug design” (Eur J Med Chem, 2007).

Series [1] deals with Integrin alpha-V/beta-3 (Homo sapiens, UniProt P05106+P06756). In words: Binding affinity to Integrin alpha-v-beta-3 receptor by ELISA assay. It is filed as protein-complex assay. On the technique in general: In an ELISA, binding on a coated surface is turned into a signal by an enzyme label.
Chain of Integrin alpha-V/beta-3 (P05106 27-788 limits assumed): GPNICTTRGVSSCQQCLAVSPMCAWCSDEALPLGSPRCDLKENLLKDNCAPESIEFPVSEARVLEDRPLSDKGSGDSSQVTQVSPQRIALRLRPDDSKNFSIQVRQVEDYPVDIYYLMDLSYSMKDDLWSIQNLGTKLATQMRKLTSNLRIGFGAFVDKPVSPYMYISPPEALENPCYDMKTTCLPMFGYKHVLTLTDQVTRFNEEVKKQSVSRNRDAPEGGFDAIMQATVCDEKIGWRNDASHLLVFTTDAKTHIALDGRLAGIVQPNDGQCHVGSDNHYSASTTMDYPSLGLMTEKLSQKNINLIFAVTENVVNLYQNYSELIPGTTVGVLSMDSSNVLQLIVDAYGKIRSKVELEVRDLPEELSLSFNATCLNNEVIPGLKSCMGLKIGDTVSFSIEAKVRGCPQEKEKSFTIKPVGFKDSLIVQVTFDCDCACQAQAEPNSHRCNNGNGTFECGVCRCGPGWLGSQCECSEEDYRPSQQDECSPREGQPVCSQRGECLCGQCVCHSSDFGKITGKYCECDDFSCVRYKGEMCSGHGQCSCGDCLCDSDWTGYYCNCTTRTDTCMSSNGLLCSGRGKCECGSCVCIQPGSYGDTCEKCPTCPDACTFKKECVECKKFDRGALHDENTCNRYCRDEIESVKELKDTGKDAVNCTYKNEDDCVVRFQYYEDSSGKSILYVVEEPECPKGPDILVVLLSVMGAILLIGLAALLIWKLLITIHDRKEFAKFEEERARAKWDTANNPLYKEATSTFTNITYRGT
Chain of Integrin alpha-V/beta-3 (P06756 31-889 limits assumed): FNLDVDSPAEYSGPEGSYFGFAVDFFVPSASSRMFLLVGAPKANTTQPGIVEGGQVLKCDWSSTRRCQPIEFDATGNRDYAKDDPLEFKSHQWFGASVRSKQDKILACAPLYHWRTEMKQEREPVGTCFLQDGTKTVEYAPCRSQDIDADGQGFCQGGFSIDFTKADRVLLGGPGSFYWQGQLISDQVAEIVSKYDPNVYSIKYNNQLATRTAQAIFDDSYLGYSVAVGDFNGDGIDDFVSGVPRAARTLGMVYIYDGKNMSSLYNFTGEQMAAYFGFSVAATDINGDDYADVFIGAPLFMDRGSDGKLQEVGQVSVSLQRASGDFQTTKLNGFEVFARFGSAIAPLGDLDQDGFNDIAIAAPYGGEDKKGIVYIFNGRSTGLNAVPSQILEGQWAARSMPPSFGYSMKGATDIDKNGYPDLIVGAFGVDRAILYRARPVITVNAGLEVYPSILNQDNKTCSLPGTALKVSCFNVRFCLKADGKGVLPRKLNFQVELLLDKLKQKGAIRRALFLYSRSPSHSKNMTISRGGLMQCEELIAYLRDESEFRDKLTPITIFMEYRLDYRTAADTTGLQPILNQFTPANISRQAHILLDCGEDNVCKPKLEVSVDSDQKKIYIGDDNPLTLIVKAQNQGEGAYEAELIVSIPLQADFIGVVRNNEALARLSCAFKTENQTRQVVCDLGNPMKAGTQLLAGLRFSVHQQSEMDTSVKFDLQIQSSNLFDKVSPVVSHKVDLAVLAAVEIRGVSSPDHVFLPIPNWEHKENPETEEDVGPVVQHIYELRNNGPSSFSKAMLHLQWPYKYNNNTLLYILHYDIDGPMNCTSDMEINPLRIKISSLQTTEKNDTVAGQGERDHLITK
Chain of Integrin alpha-V/beta-3 (P06756 891-1048 limits assumed): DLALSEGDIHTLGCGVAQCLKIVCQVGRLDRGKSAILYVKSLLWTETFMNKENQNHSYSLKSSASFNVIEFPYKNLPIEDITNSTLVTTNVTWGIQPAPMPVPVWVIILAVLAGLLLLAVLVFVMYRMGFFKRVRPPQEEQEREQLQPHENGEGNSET
Series [2] has as its target Integrin alpha-V/beta-5 (Homo sapiens, UniProt P06756+P18084). In words: Binding affinity to Integrin alpha-v-beta-5 receptor by ELISA assay. It is filed as protein-complex assay.
Series [3] can be described thus: Binding affinity to Integrin […] receptor by ELISA assay. Further details: species or system Homo sapiens.
Series [4] can be described thus: Binding affinity to Integrin alpha-2b-beta-3a receptor by ELISA assay. Further details: species or system Homo sapiens.
Series [5] can be described thus: Permeability from apical to basolateral side of human Caco-2 cell membrane. It is filed as ADME, cell-based. (In general: Passage across Caco-2 layers is used to estimate intestinal permeability.)
A short description of series [6]: Permeability from basolateral to apical side of human Caco-2 cell membrane. It is filed as ADME, cell-based.

pIC50: −log10 of the molar value.

Broadly, the pIC50 is the IC50 on a negative log10 scale, so that one unit is a factor of ten. Low values mean a large IC50, high ones a small IC50. One may read the Papp A→B as how fast a substance crosses the layer from the apical side. A higher Papp A→B goes with ready permeation. Usually Papp B→A stands for how fast a substance crosses the layer from the basolateral side.

Chain of Integrin alpha-V/beta-5 (P06756 31-889 limits assumed): as the sequence (P06756 31-889 limits assumed) above
Chain of Integrin alpha-V/beta-5 (P06756 891-1048 limits assumed): as the sequence (P06756 891-1048 limits assumed) above
Chain of Integrin alpha-V/beta-5 (P18084 24-799 limits assumed): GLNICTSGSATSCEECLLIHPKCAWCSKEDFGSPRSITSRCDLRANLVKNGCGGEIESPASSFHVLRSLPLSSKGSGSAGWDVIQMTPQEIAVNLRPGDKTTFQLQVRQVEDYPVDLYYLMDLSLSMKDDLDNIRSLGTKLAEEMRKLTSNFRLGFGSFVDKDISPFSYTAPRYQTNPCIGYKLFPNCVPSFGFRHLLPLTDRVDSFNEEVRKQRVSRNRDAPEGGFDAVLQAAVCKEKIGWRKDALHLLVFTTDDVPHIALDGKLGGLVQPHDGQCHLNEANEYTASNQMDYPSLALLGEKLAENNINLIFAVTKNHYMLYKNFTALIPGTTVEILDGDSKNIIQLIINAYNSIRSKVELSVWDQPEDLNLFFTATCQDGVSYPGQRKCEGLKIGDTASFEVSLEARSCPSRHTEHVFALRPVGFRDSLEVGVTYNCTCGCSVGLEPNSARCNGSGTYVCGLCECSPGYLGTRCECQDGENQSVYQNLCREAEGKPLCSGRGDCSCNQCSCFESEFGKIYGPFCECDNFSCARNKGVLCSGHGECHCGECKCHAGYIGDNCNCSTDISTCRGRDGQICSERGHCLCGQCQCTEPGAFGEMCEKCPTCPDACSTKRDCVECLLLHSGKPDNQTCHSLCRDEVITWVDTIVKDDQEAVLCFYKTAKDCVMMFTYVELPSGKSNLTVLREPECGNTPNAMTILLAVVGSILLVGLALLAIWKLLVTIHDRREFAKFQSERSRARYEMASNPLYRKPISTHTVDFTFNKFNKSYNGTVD

`O=C(O)CC(c1ccccc1)n1ccc2cc(CCCc3ccc4c(n3)NCCC4)ccc21` (centres undefined): the pIC50 in series [1] is 7.85; in series [2], 7.82; in series [3] it was 5.96; in series [4] it was below 6.00.
For `O=C(O)CC(c1ccc2c(c1)OCO2)n1ccc2cc(OCCc3ccc4c(n3)NCCC4)ccc21` (centres undefined), the negative-log IC50 (pIC50) in series [2] is 9.30; in series [3], 7.62; in series [4], below 6.00.
On to `O=C(O)CC(c1ccccc1)n1ccc2c(CCc3ccc4c(n3)NCCC4)cccc21` (centres undefined), for which the pIC50 in series [1] is 9.02; in series [2], 8.96; in series [3], 6.97; in series [4], below 6.00.
For the molecule `O=C(O)CC(c1cccnc1)n1ccc2c(NCc3ccc4c(n3)NCCC4)cccc21` (centres undefined), the pIC50 is 8.36 in series [1], 7.96 in series [2], 5.03 in series [3] and below 6.00 in series [4].
For the molecule `CC(C)[C@H]1C(=O)N[C@@H](CCCNC(=N)N)C(=O)NCC(=O)N[C@@H](CC(=O)O)C(=O)N[C@H](Cc2ccccc2)C(=O)N1C` [CILENGITIDE], the figures for the pIC50 in series [3] and in series [4] were 7.85 and below 6.00, respectively.
For the molecule `O=C(O)CC(c1cccnc1)n1ccc2c(CCc3ccc4c(n3)NCCC4)cccc21` (centres undefined), the pIC50 is 9.30 in series [1], 9.02 in series [2], 6.60 in series [3] and below 6.00 in series [4]. The molecule further came in with a Papp A→B in series [5] of 2.2 ×10⁻⁶ cm/s. Moreover, the Papp B→A in series [6] is 2.5 ×10⁻⁶ cm/s.
On to `O=C(O)CC(c1cccnc1)n1ccc2cc(OCCc3ccc4c(n3)NCCC4)ccc21` (centres undefined), for which the pIC50 in series [2] was 9.68; in series [3], 7.82; in series [4], below 6.00.
Taken in the same sequence, the figures for `O=C(O)CC(c1ccccc1)n1ccc2cc(OCCc3ccc4c(n3)NCCC4)ccc21` (centres undefined) were 9.17, 7.39 and below 6.00.
